Among the data in US9376425B2, “Heterocyclic compounds as MDM2 inhibitors for the treatment of cancer” (AMGEN INC., priority 2011, dated 2016) are IC50 values, retold here.

One may read the IC50 as the midpoint of a concentration-inhibition curve. A high value points to a need for much substance.

T1 sequence (Q00987 1-188): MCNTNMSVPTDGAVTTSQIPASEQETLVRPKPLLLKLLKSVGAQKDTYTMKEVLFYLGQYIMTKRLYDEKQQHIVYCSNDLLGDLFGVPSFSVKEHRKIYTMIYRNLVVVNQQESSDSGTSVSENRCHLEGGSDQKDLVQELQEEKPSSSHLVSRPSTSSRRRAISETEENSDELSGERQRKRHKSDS

The experiment addresses T1, human MDM2 (GST-hMDM2 1-188), interaction with biotinylated-p53 (1-83) (Homo sapiens, UniProt Q00987).
T1 construct: Amino acid residues 1-188 of human MDM2 were expressed; made in house; host or cells: Escherichia coli
As to the kind of experiment: improved HTRF assay (HTRF2 assay), inhibition of HDM2-p53 interaction. The format is binding. To be noted: 0.2 nM GST-hMDM2, 0.5 nM biotinylated-p53, 100 mM KF. In outline:
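Time-resolved fluorescence (HTRF) read after >4 h equilibration with SA-XLent/anti-GST cryptate/KF detection reagents. Reaction: compound plus GST-hMDM2 for 20 min at room temperature, then E. coli-expressed biotinylated p53 residues 1-83 for 60 min, 2% DMSO final. Inhibition expressed versus nutlin-3.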
Take `CC[C@@H](CN(c1ccccn1)S(=O)(=O)C1CC1)N1C(=O)[C@H](CC(=O)O)O[C@H](c2cccc(Cl)c2)[C@H]1c1ccc(Cl)cc1` (single isomer, unassigned) [Example 181, 2-((2S,5R,6R)-6-(3-chlorophenyl)-5-(4-chlorophenyl)-3-oxo-4-((S)-1-(N-(pyridin-2-yl)cyclopropanesulfonamido)butan-2-yl)morpholin-2-yl)acetic acid or 2-((2R,5R,6R)-6-(3-chlorophenyl)-5-(4-chlorophenyl)-3-oxo-4-((S)-1-(N-(pyridin-2-yl)cyclopropanesulfonamido)butan-2-yl)morpholin-2-yl)acetic acid]: half-maximal inhibition (IC50) required 1 nM.
For the molecule `CC[C@@H](CS(=O)(=O)C(C)(C)C)N1C(=O)[C@@H](CC(=O)O)O[C@H](c2cccc(Cl)c2)[C@H]1c1ccc(Cl)c(F)c1` (single isomer, unassigned) [Example 182, 2-((2R,5R,6R)-4-((S)-1-(tert-butylsulfonyl)butan-2-yl)-5-(4-chloro-3-fluorophenyl)-6-(3-chlorophenyl)-3-oxomorpholin-2-yl)acetic acid or 2-((2S,5R,6R)-4-((S)-1-(tert-butylsulfonyl)butan-2-yl)-5-(4-chloro-3-fluorophenyl)-6-(3-chlorophenyl)-3-oxomorpholin-2-yl)acetic acid], the IC50 is 4 nM.
Next, `CC[C@@H](CS(=O)(=O)C(C)(C)C)N1C(=O)[C@@H](CC(=O)O)O[C@H](c2cccc(Cl)c2)[C@H]1c1ccc(Cl)c(F)c1` (single isomer, unassigned) [Example 183, 2-((2R,5R,6R)-4-((S)-1-(tert-butylsulfonyl)butan-2-yl)-5-(4-chloro-3-fluorophenyl)-6-(3-chlorophenyl)-3-oxomorpholin-2-yl)acetic acid or 2-((2S,5R,6R)-4-((S)-1-(tert-butylsulfonyl)butan-2-yl)-5-(4-chloro-3-fluorophenyl)-6-(3-chlorophenyl)-3-oxomorpholin-2-yl)acetic acid]: 178 nM; `CC[C@@H](CS(=O)(=O)C1CCOCC1)N1C(=O)[C@@H](CC(=O)O)O[C@H](c2cccc(Cl)c2)[C@H]1c1ccc(Cl)cc1` (single isomer, unassigned) [Example 186, 2-((2R,5R,6R)-6-(3-chlorophenyl)-5-(4-chlorophenyl)-3-oxo-4-((S)-1-((tetrahydro-2H-pyran-4-yl)sulfonyl)butan-2-yl)morpholin-2-yl)acetic acid or 2-((2S,5R,6R)-6-(3-chlorophenyl)-5-(4-chlorophenyl)-3-oxo-4-((S)-1-((tetrahydro-2H-pyran-4-yl)sulfonyl)butan-2-yl)morpholin-2-yl)acetic acid]: 2 nM.
The same measure for `CC[C@@H](CS(=O)(=O)C1CCOCC1)N1C(=O)[C@@H](CC(=O)O)O[C@H](c2cccc(Cl)c2)[C@H]1c1ccc(Cl)cc1` (single isomer, unassigned) [Example 187, 2-((2R,5R,6R)-6-(3-chlorophenyl)-5-(4-chlorophenyl)-3-oxo-4-((S)-1-((tetrahydro-2H-pyran-4-yl)sulfonyl)butan-2-yl)morpholin-2-yl)acetic acid or 2-((2S,5R,6R)-6-(3-chlorophenyl)-5-(4-chlorophenyl)-3-oxo-4-((S)-1-((tetrahydro-2H-pyran-4-yl)sulfonyl)butan-2-yl)morpholin-2-yl)acetic acid]: 2 nM.
Next, `O=C(O)C[C@H]1O[C@H](c2cccc(Cl)c2)[C@@H](c2ccc(Cl)cc2)N([C@H](CN(c2ncccc2F)S(=O)(=O)C2CC2)C2CC2)C1=O` (single isomer, unassigned) [Example 188, 2-((2R,5R,6R)-6-(3-chlorophenyl)-5-(4-chlorophenyl)-4-((S)-1-cyclopropyl-2-(N-(3-fluoropyridin-2-yl)cyclopropanesulfonamido)ethyl)-3-oxomorpholin-2-yl)acetic acid or 2-((2S,5R,6R)-6-(3-chlorophenyl)-5-(4-chlorophenyl)-4-((S)-1-cyclopropyl-2-(N-(3-fluoropyridin-2-yl)cyclopropanesulfonamido)ethyl)-3-oxomorpholin-2-yl)acetic acid]: under 1 nM; `O=C(O)C[C@H]1O[C@H](c2cccc(Cl)c2)[C@@H](c2ccc(Cl)cc2)N([C@H](CN(c2ncccc2F)S(=O)(=O)C2CC2)C2CC2)C1=O` (single isomer, unassigned) [Example 189, 2-((2R,5R,6R)-6-(3-chlorophenyl)-5-(4-chlorophenyl)-4-((S)-1-cyclopropyl-2-(N-(3-fluoropyridin-2-yl)cyclopropanesulfonamido)ethyl)-3-oxomorpholin-2-yl)acetic acid or 2-((2S,5R,6R)-6-(3-chlorophenyl)-5-(4-chlorophenyl)-4-((S)-1-cyclopropyl-2-(N-(3-fluoropyridin-2-yl)cyclopropanesulfonamido)ethyl)-3-oxomorpholin-2-yl)acetic acid]: under 1 nM.
For `CC[C@@H](CS(=O)(=O)CC1CC1)N1C(=O)[C@@H](CC(=O)O)O[C@H](c2cccc(Cl)c2)[C@H]1c1ccc(Cl)cc1` (single isomer, unassigned) [Example 190, 2-((2R,5R,6R)-6-(3-chlorophenyl)-5-(4-chlorophenyl)-4-((S)-1-((cyclopropylmethyl)sulfonyl)butan-2-yl)-3-oxomorpholin-2-yl)acetic acid or 2-((2S,5R,6R)-6-(3-chlorophenyl)-5-(4-chlorophenyl)-4-((S)-1-((cyclopropylmethyl)sulfonyl)butan-2-yl)-3-oxomorpholin-2-yl)acetic acid], it took 3 nM to reach half-maximal inhibition (IC50).
Molecule `CC[C@@H](CS(=O)(=O)CC1CC1)N1C(=O)[C@@H](CC(=O)O)O[C@H](c2cccc(Cl)c2)[C@H]1c1ccc(Cl)cc1` (single isomer, unassigned) [Example 191, 2-((2R,5R,6R)-6-(3-chlorophenyl)-5-(4-chlorophenyl)-4-((S)-1-((cyclopropylmethyl)sulfonyl)butan-2-yl)-3-oxomorpholin-2-yl)acetic acid or 2-((2S,5R,6R)-6-(3-chlorophenyl)-5-(4-chlorophenyl)-4-((S)-1-((cyclopropylmethyl)sulfonyl)butan-2-yl)-3-oxomorpholin-2-yl)acetic acid] yielded an IC50 of 5 nM.
In turn, `CC(C)[C@@H](CN(c1ccccc1)S(=O)(=O)C1CC1)N1C(=O)[C@@H](CC(=O)O)O[C@H](c2cccc(Cl)c2)[C@H]1c1ccc(Cl)cc1` (single isomer, unassigned) [Example 192, 2-((2R,5R,6R)-6-(3-chlorophenyl)-5-(4-chlorophenyl)-4-((S)-3-methyl-1-(N-phenylcyclopropanesulfonamido)butan-2-yl)-3-oxomorpholin-2-yl)acetic acid or 2-((2S,5R,6R)-6-(3-chlorophenyl)-5-(4-chlorophenyl)-4-((S)-3-methyl-1-(N-phenylcyclopropanesulfonamido)butan-2-yl)-3-oxomorpholin-2-yl)acetic acid] displayed an IC50 of 1 nM.
Next, `CC(C)[C@H](CN(c1ccccc1)S(=O)(=O)C1CC1)N1C(=O)[C@@H](CC(=O)O)O[C@H](c2cccc(Cl)c2)[C@H]1c1ccc(Cl)cc1` (single isomer, unassigned) [Example 193, 2-((2R,5R,6R)-6-(3-chlorophenyl)-5-(4-chlorophenyl)-4-((R)-3-methyl-1-(N-phenylcyclopropanesulfonamido)butan-2-yl)-3-oxomorpholin-2-yl)acetic acid or 2-((2S,5R,6R)-6-(3-chlorophenyl)-5-(4-chlorophenyl)-4-((R)-3-methyl-1-(N-phenylcyclopropanesulfonamido)butan-2-yl)-3-oxomorpholin-2-yl)acetic acid]: 32 nM; `CCC[C@@H](CS(=O)(=O)C(C)(C)C)N1C(=O)[C@@H](CC(=O)O)O[C@H](c2cccc(Cl)c2)[C@H]1c1ccc(Cl)cc1` (single isomer, unassigned) [Example 194, 2-((2R,5R,6R)-4-((S)-1-(tert-butylsulfonyl)pentan-2-yl)-6-(3-chlorophenyl)-5-(4-chlorophenyl)-3-oxomorpholin-2-yl)acetic acid or 2-((2S,5R,6R)-4-((S)-1-(tert-butylsulfonyl)pentan-2-yl)-6-(3-chlorophenyl)-5-(4-chlorophenyl)-3-oxomorpholin-2-yl)acetic acid]: 3 nM; `CCC[C@@H](CS(=O)(=O)C(C)(C)C)N1C(=O)[C@@H](CC(=O)O)O[C@H](c2cccc(Cl)c2)[C@H]1c1ccc(Cl)cc1` (single isomer, unassigned) [Example 195, 2-((2R,5R,6R)-4-((S)-1-(tert-butylsulfonyl)pentan-2-yl)-6-(3-chlorophenyl)-5-(4-chlorophenyl)-3-oxomorpholin-2-yl)acetic acid or 2-((2S,5R,6R)-4-((S)-1-(tert-butylsulfonyl)pentan-2-yl)-6-(3-chlorophenyl)-5-(4-chlorophenyl)-3-oxomorpholin-2-yl)acetic acid]: 3 nM.
`CC(C)[C@@H](CN(c1ccccc1F)S(=O)(=O)C(C)C)N1C(=O)[C@@H](CC(=O)O)O[C@H](c2cccc(Cl)c2)[C@H]1c1ccc(Cl)cc1` (single isomer, unassigned) [Example 198, 2-((2R,5R,6R)-6-(3-chlorophenyl)-5-(4-chlorophenyl)-4-((S)-1-(N-(2-fluorophenyl)propan-2-ylsulfonamido)-3-methylbutan-2-yl)-3-oxomorpholin-2-yl)acetic acid or 2-((2S,5R,6R)-6-(3-chlorophenyl)-5-(4-chlorophenyl)-4-((S)-1-(N-(2-fluorophenyl)propan-2-ylsulfonamido)-3-methylbutan-2-yl)-3-oxomorpholin-2-yl)acetic acid] had an IC50 of 1 nM.
